Measurements published in patent US10639380B2, “Flavivirus-binding, entry-obstructing, protease-resistant peptide (RI57)” (priority 2016, dated 2020).
Peptide text beside a SMILES is read from it.

Assays:
DENV2 [1] = assay: LLC-MK2 FFU assay after trypsin exposure of peptide; type: cell-based, dengue virus
Description: Table 7. […] The peptides were exposed to trypsin for ten minutes at 37° C. before STI was added and further incubated ten minutes. The resulting peptide, in each case, was incubated with DENV2 for 1 hour at 20° C. and then this preparation used to infect confluent LLC-MK2 monolayers.

DENV2 [2] = assay: qRT-PCR virus-binding assay; type: cell-based, dengue virus
Description: Further to characterize DENV binding to host cells, experiments were conducted to analyze the first step in the process of infection. Infection of LLC-MK2 target cells in six-well plates was executed in duplicate using 10^5 FFU of DENV2 pre-incubated 45 min at 4° C. with either DN57, or RI57 peptide, or pooled heterotypic anti-DENV human serum. Following said 45 min exposure at 4° C., infected monolayers were washed with PBS and harvested by cell scraping, added to a 1.5 ml microfuge tube containing 350 μl AR-200 silicone oil (Sigma-Aldrich, St. Louis, Mo.), mixed with 150 μl silicone fluid (Thomas, Swedesboro, N.J.), and microfuge spun 1 min at 14,000 rpm to separate unbound virus from cell-bound virus. The tubes were then submerged in liquid nitrogen for 30 sec to freeze the contents. The cell pellets with (or without) bound virus were recovered by removing the bottoms of the tubes with small wire clippers and placing them in 15 ml conical tubes. By means of the Qiagen Viral RNA Extraction Kit (Qiagen, Chatsworth, Calif.), viral RNA was extracted from cell pellets.
Using the Quantitect SYBR Green RT-PCR kit (Qiagen Inc., Chatsworth, Calif.), qRT-PCR was performed on the extracted RNA. Manufacturer's specifications and amplification protocols were followed utilizing dengue-specific primers: (DenF: 5-[…]-3 and DenR: 5-[…]-3). […] The following amplification protocol was used: 50° C. for 20 min to reverse transcribe the RNA; 95° C. for 15 min to activate the HotStart Taq DNA Polymerase; 45 PCR cycles: 94° C. for 15 sec; 50° C. for 15 sec; 72° C. for 30 sec; and fluorescence data acquisition was the final step. […]
To test whether DN57 and RI57 interfere directly with virus binding to target cells, binding assays were conducted using qRT-PCR to monitor attachment of virus to target cells. […] RNA was then extracted from the cell pellets and amplified with DENV2-specific primers to quantitate the presence of virus. […]

DENV2 [3] = assay: Post-entry FFU assay; type: cell-based, dengue virus; settings: any DN57 concentration; data not shown, see Costin, et al., 2010
Description: Experiments were conducted further to characterize observed inhibitory effects to determine whether they actually may have been due to interference with post-entry steps in the viral life cycle. To this end, approximately 200 FFU of DENV2 (without DN57) were allowed the opportunity to bind and then enter target LLC-MK2 cells for 1 h at 37° C. as described for the focus-forming assay. Any unbound virus was then removed by rinsing with PBS. Next, DN57 was added to the cells post-entry for 1 h at 37° C. Cultures again were washed with PBS and agarose overlays, incubation, and immunological detection assessments were performed as described for the focus-forming assay.

in vitro = settings: rhesus monkey, LLC-MK2 cells (confluent monolayers)
Description: Possible direct cytotoxicity caused by peptide exposure to proliferating LLC-MK2 monolayers was measured using the TACS™ MTT cell proliferation assay (R&D Systems, Inc., Minneapolis, Minn.) according to the manufacturer's instructions. The MTT assay detects and measures mitochondrial reductase activity observable in viable cells. […] A Tecan GeniosPro plate reader (Tecan US, Durham, N.C.) was used to measure absorbance at 560 nm.
Error bars show ±standard deviations (±sd) of the means with an asterisk indicating instances of statistically-significant differences from control according to Dunnett's post hoc test (p<0.05).

DENV2 [4] = assay: Pre-binding FFU assay (reversibility of peptide binding); type: cell-based, dengue virus
Description: Experiments were conducted further to characterize observed inhibitory effects and determine whether these may have been due to unintended interference owing to modifications of target LLC-MK2 cell surfaces. RI57 was incubated with target cells for 1 h at 4° C., the monolayer cells were then rinsed with PBS, and approximately 200 FFU of DENV2 allowed to infect the cells at 4° C. Agarose overlays, incubation, and immunological detection tests were conducted as described above for the focus-forming assay.
In this assay, DN57 or RI57 was added to target cells for 1 h prior to infection with DENV2 to determine whether these peptides inhibit entry through interaction directly with target cells. […] Table 5. (and also FIG. 7) presents results showing that peptide binding can be reversible. (and FIG. 5.). Introducing a step diluting the concentration of peptide 10-fold after incubating/1 h at 20° C. and then infecting immediately thereafter reverses this inhibition. Errors around the means are depicted as ±sd.

DENV2 [5] = assay: Post-binding FFU assay; type: cell-based, dengue virus; settings: DN57 added after virus bound at 4° C.; data not shown, see Costin, et al., 2010
Description: Experiments were conducted further to characterize observed inhibitory effects as to whether these may have been due to interference with interactions occurring pre-binding, versus post-binding, of virions and LLC-MK2 target cells. An estimated 200 FFU of DENV2 were allowed to interact with target cells for 1 h at 4° C., permitting binding while preventing internalization. Unbound virus was washed off with PBS at 4° C., DN57 added, and the cultures incubated at 4° C. for 1 h, again washed in 4° C. PBS, and then warmed to 37° C. Finally, agarose overlays, incubation, and immunological detection assays were performed as described for the focus-forming assay.
Inasmuch as it was determined that inhibition by DN57 occurs at a viral-entry step, whether infection could still be inhibited after virus had bound to the surface of target cells was tested. In these experiments, virus was allowed to bind to cells at 4° C., then treated with increasing concentrations of DN57 before warming the cells to 37° C. providing conditions in favor of viral progression.

trypsin = settings: peptide incubated in trypsin at 37° C. before adding STI
Description: The image documents 10-20% gradient gels run electrophoretically (e-gel), labeled with Imperial Protein Stain, and photographed. An e-gel was performed for each peptide, stained with Imperial stain, and photographed. The arrow markers show both the identity of the peptide run and its final location after migration. For each peptide assessment, lanes 1 contain peptide alone; lanes 2, peptide plus soybean trypsin inhibitor (STI); and lanes 3, peptide incubated in trypsin at 37° C. before adding STI.

[6] = 1:2 dilution of NHS, 37° C., 24 h
Description: Lane 1 contains peptide alone/time=0; lane 2, peptide at 37° C./time=24 h; lane 3, peptide in a 1:2 dilution of NHS/time=0; lane 4, peptide in a 1:2 dilution of NHS @ 37° C./time=24 h; and lane 5, a 1:2 dilution of NHS with no peptide at 37° C./time=24 h.

DENV2 [7] = settings: as previously observed; cited from earlier work

## CSCC[C@H](NC(=O)[C@H](Cc1c[nH]c2ccccc12)NC(=O)[C@@H](N)CCCNC(=N)N)C(=O)N[C@H](C(=O)N[C@@H](Cc1c[nH]c2ccccc12)C(=O)N[C@@H](CCCNC(=N)N)C(=O)N[C@@H](Cc1c[nH]cn1)C(=O)N[C@@H](Cc1c[nH]c2ccccc12)C(=O)N[C@@H](Cc1ccccc1)C(=O)N[C@@H](Cc1c[nH]cn1)C(=O)N[C@@H](CCCNC(=N)N)C(=O)N[C@@H](CC(C)C)C(=O)N[C@@H](CCCNC(=N)N)C(=O)N[C@@H](CC(C)C)C(=O)N1CCC[C@H]1C(=O)N[C@@H](Cc1ccc(O)cc1)C(=O)N[C@@H](CC(N)=O)C(=O)N1CCC[C@H]1C(=O)NCC(=O)N[C@@H](CCCCN)C(=O)N[C@@H](CC(N)=O)C(=O)N[C@@H](CCCCN)C(=O)N[C@@H](CCC(N)=O)C(=O)N[C@@H](CC(N)=O)C(=O)N[C@@H](CCC(N)=O)C(=O)N[C@@H](CCC(N)=O)C(=O)N[C@@H](Cc1c[nH]c2ccccc12)C(=O)N1CCC[C@H]1C(=O)O)C(C)C [DN57, reference compound] (H-RWMVWRHWFHRLRLPYNPGKNKQNQQWP-OH; N-terminus and C-terminus assumed)
DENV2 [1]; DENV2 + 20 uM peptide
  % Infection Inhibition: 96.4%
DENV2 [1]; DENV2 + 20 uM peptide + Trypsin + STI (trypsin ten minutes at 37° C.)
  % Infection Inhibition: 5.2%
DENV2 [1]; trypsin ten minutes at 37° C. before STI
  DENV2 inhibitory activity after trypsin exposure: did not
DENV2 [2]; DENV2 + 20 uM peptide
  % Infection Inhibition: 96.4%
DENV2 [2]; DENV2 + 20 uM peptide + Trypsin + STI
  % Infection Inhibition: 5.2%
DENV2 [2]; virus co-incubated with peptide 45 min at 4° C.
  binding of virus to cells: inhibit binding of virus to cells
DENV2 [3]
  viral replication when peptide added post-entry: no inhibition of viral replication was observed
In vitro
  viability at 24 h, 0.1 µM: 100%
  viability at 24 h, 0.5 µM: 98.6%
  viability at 24 h, 1 µM: 100%
  viability at 24 h, 5 µM: 97.8%
  viability at 24 h, 10 µM: 95.9%
  viability at 24 h, 15 µM: 92.8%
  viability at 24 h, 20 µM: 76.4%
  viability at 24 h, 25 µM: 80.2%
  viability at 24 h, 30 µM: 54.7%
  viability at 24 h, 35 µM: 55.1%
  viability at 24 h, 40 µM: 50.6%
DENV2 [4]; PBS Rinse (text: peptide diluted 10-fold after incubation, then infecting)
  % DENV2 Infection Inhibition: −2.8%
DENV2 [4]; incubation with 10 μM/1 h at 20° C., no rinse
  % DENV2 Infection Inhibition: 83.1%
DENV2 [4]; peptide added to target cells for 1 h prior to infection
  inhibition on treatment of target cells with peptide prior to DENV2 infection: no evidence of inhibition
DENV2 [5]
  DENV-2 infection after virus binding to cells, before entry: inhibits DENV-2 infection
trypsin
  trypsin cleavage (e-gel): degraded
[6]
  degradation in normal human serum (e-gel): absent

## heparin sulfate
DENV2 [7]
  binding of dengue virus to cells (control): dramatically reduces binding of dengue virus to cells
